From the supplement of paper PMC10307832

How the values were obtained:
Test in all cases: relative viability (nuclei count vs DMSO), 5 days (fraction); higher = more cells survive
[1] = compound: Cn1cncc1[C@@](N)(c1ccc(Cl)cc1)c1ccc2c(c1)c(-c1cccc(Cl)c1)cc(=O)n2C [Tipifarnib] + COc1cccc2cc(-c3nc([C@H]4CC[C@H](C(=O)O)CC4)n4ncnc(N)c34)[nH]c12 [OSI-027] (partner 0.5 µM)
In short: (§1)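 Lung cancer cell lines were seeded in 1536-well plates and dosed by pin tool the next day, with either a single drug or a fixed anchor-drug dose combined with five library-drug doses (not always all listed) spaced in √10 steps. Five days later, one step fixed the cells and stained their nuclei (final 0.05% Triton X-100, 1% formaldehyde, 1 ug/ml Hoechst), and nuclei were counted on 4× images. Relative viability is the nuclei count in treated wells divided by the count in vehicle wells, and each value is the median of duplicate plates.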

[2] = compound: Cn1cncc1[C@@](N)(c1ccc(Cl)cc1)c1ccc2c(c1)c(-c1cccc(Cl)c1)cc(=O)n2C [Tipifarnib] + CS(=O)(=O)CCNCc1ccc(-c2ccc3ncnc(Nc4ccc(OCc5cccc(F)c5)c(Cl)c4)c3c2)o1 [Lapatinib] (partner 2 µM)
In short: as §1

[3] = compound: Cn1cncc1[C@@](N)(c1ccc(Cl)cc1)c1ccc2c(c1)c(-c1cccc(Cl)c1)cc(=O)n2C [Tipifarnib] + C[C@]1(O)C[C@@H](c2nc(-c3ccc4ccc(-c5ccccc5)nc4c3)c3c(N)nccn32)C1 [Linsitinib] (partner 1 µM)
In short: as §1

[4] = compound: Cn1cncc1[C@@](N)(c1ccc(Cl)cc1)c1ccc2c(c1)c(-c1cccc(Cl)c1)cc(=O)n2C [Tipifarnib] + Cc1nc(NC(=O)N2CCC[C@H]2C(N)=O)sc1-c1ccnc(C(C)(C)C(F)(F)F)c1 [Alpelisib] (partner 2 µM)
In short: as §1

Cell Line NCI-H1975 has a relative viability ([1]; first compound 0.01 µM) of 0.788, a relative viability ([1]; first compound 0.03162 µM) of 0.701 and a relative viability ([1]; first compound 0.1 µM) of 0.567. The relative viability ([1]; first compound 0.3162 µM) was 0.318, the relative viability ([1]; first compound 1 µM) was 0.31 and the relative viability ([2]; first compound 0.01 µM) was 1.01. It also gave a relative viability ([2]; first compound 0.03162 µM) of 0.933, a relative viability ([2]; first compound 0.1 µM) of 0.933 and a relative viability ([2]; first compound 0.3162 µM) of 0.631. For the same cell line, the relative viability ([2]; first compound 1 µM) was 0.65, the relative viability ([3]; first compound 0.01 µM) was 1.07 and the relative viability ([3]; first compound 0.03162 µM) was 1.16. For the same cell line, the relative viability ([3]; first compound 0.1 µM) was 0.876, the relative viability ([3]; first compound 0.3162 µM) was 0.614 and the relative viability ([3]; first compound 1 µM) was 0.714. It also gave a relative viability ([4]; first compound 0.01 µM) of 0.713, a relative viability ([4]; first compound 0.03162 µM) of 0.599 and a relative viability ([4]; first compound 0.1 µM) of 0.468. The relative viability ([4]; first compound 0.3162 µM) was 0.329 and the relative viability ([4]; first compound 1 µM) was 0.351.

NCI-H1993 gave a relative viability ([1]; first compound 0.01 µM) of 0.469, a relative viability ([1]; first compound 0.03162 µM) of 0.613 and a relative viability ([1]; first compound 0.1 µM) of 0.531. The relative viability ([1]; first compound 0.3162 µM) was 0.644, the relative viability ([1]; first compound 1 µM) was 0.604 and the relative viability ([2]; first compound 0.01 µM) was 0.747. It also gave a relative viability ([2]; first compound 0.03162 µM) of 0.835, a relative viability ([2]; first compound 0.1 µM) of 0.699 and a relative viability ([2]; first compound 0.3162 µM) of 0.716. It also gave a relative viability ([2]; first compound 1 µM) of 0.779, a relative viability ([3]; first compound 0.01 µM) of 0.772 and a relative viability ([3]; first compound 0.03162 µM) of 0.746. The relative viability ([3]; first compound 0.1 µM) was 0.73, the relative viability ([3]; first compound 0.3162 µM) was 0.732 and the relative viability ([3]; first compound 1 µM) was 0.789. It also gave a relative viability ([4]; first compound 0.01 µM) of 0.71, a relative viability ([4]; first compound 0.03162 µM) of 0.679 and a relative viability ([4]; first compound 0.1 µM) of 0.675. It also gave a relative viability ([4]; first compound 0.3162 µM) of 0.677 and a relative viability ([4]; first compound 1 µM) of 0.671.

In the case of NCI-H2009, the relative viability ([1]; first compound 0.01 µM) is reported as 0.659, the relative viability ([1]; first compound 0.03162 µM) is reported as 0.362 and the relative viability ([1]; first compound 0.1 µM) is reported as 0.335. For the same cell line, the relative viability ([1]; first compound 0.3162 µM) was 0.299, the relative viability ([1]; first compound 1 µM) was 0.245 and the relative viability ([2]; first compound 0.01 µM) was 0.99. It also gave a relative viability ([2]; first compound 0.03162 µM) of 0.707, a relative viability ([2]; first compound 0.1 µM) of 0.708 and a relative viability ([2]; first compound 0.3162 µM) of 0.602. For the same cell line, the relative viability ([2]; first compound 1 µM) was 0.326, the relative viability ([3]; first compound 0.01 µM) was 1.19 and the relative viability ([3]; first compound 0.03162 µM) was 1.09. For the same cell line, the relative viability ([3]; first compound 0.1 µM) was 0.903, the relative viability ([3]; first compound 0.3162 µM) was 0.702 and the relative viability ([3]; first compound 1 µM) was 0.667. It also gave a relative viability ([4]; first compound 0.01 µM) of 1.18, a relative viability ([4]; first compound 0.03162 µM) of 1.06 and a relative viability ([4]; first compound 0.1 µM) of 0.899. For the same cell line, the relative viability ([4]; first compound 0.3162 µM) was 0.689 and the relative viability ([4]; first compound 1 µM) was 0.679.

With NCI-H2023 the relative viability ([1]; first compound 0.01 µM) was 0.412, the relative viability ([1]; first compound 0.03162 µM) was 0.273 and the relative viability ([1]; first compound 0.1 µM) was 0.225. The relative viability ([1]; first compound 0.3162 µM) was 0.143, the relative viability ([1]; first compound 1 µM) was 0.132 and the relative viability ([2]; first compound 0.01 µM) was 1.01. The relative viability ([2]; first compound 0.03162 µM) was 0.544, the relative viability ([2]; first compound 0.1 µM) was 0.348 and the relative viability ([2]; first compound 0.3162 µM) was 0.357. The relative viability ([2]; first compound 1 µM) was 0.105, the relative viability ([3]; first compound 0.01 µM) was 0.598 and the relative viability ([3]; first compound 0.03162 µM) was 0.503. It also gave a relative viability ([3]; first compound 0.1 µM) of 0.37, a relative viability ([3]; first compound 0.3162 µM) of 0.329 and a relative viability ([3]; first compound 1 µM) of 0.384. For the same cell line, the relative viability ([4]; first compound 0.01 µM) was 0.595, the relative viability ([4]; first compound 0.03162 µM) was 0.442 and the relative viability ([4]; first compound 0.1 µM) was 0.391. For the same cell line, the relative viability ([4]; first compound 0.3162 µM) was 0.326 and the relative viability ([4]; first compound 1 µM) was 0.334.

In the case of NCI-H2085, the relative viability ([1]; first compound 0.01 µM) is reported as 0.738, the relative viability ([1]; first compound 0.03162 µM) is reported as 0.377 and the relative viability ([1]; first compound 0.1 µM) is reported as 0.397. For the same cell line, the relative viability ([1]; first compound 0.3162 µM) was 0.367, the relative viability ([1]; first compound 1 µM) was 0.538 and the relative viability ([2]; first compound 0.01 µM) was 0.846. It also gave a relative viability ([2]; first compound 0.03162 µM) of 0.659, a relative viability ([2]; first compound 0.1 µM) of 0.633 and a relative viability ([2]; first compound 0.3162 µM) of 0.523. For the same cell line, the relative viability ([2]; first compound 1 µM) was 0.533, the relative viability ([3]; first compound 0.01 µM) was 0.923 and the relative viability ([3]; first compound 0.03162 µM) was 0.651. For the same cell line, the relative viability ([3]; first compound 0.1 µM) was 0.514, the relative viability ([3]; first compound 0.3162 µM) was 0.404 and the relative viability ([3]; first compound 1 µM) was 0.479. The relative viability ([4]; first compound 0.01 µM) was 0.924, the relative viability ([4]; first compound 0.03162 µM) was 0.709 and the relative viability ([4]; first compound 0.1 µM) was 0.605. It also gave a relative viability ([4]; first compound 0.3162 µM) of 0.599 and a relative viability ([4]; first compound 1 µM) of 0.533.

NCI-H2087 showed a relative viability ([1]; first compound 0.01 µM) of 0.464, a relative viability ([1]; first compound 0.03162 µM) of 0.205 and a relative viability ([1]; first compound 0.1 µM) of 0.232. The relative viability ([1]; first compound 0.3162 µM) was 0.161, the relative viability ([1]; first compound 1 µM) was 0.164 and the relative viability ([2]; first compound 0.01 µM) was 0.934. It also gave a relative viability ([2]; first compound 0.03162 µM) of 0.493, a relative viability ([2]; first compound 0.1 µM) of 0.475 and a relative viability ([2]; first compound 0.3162 µM) of 0.404. It also gave a relative viability ([2]; first compound 1 µM) of 0.344, a relative viability ([3]; first compound 0.01 µM) of 0.797 and a relative viability ([3]; first compound 0.03162 µM) of 0.583. The relative viability ([3]; first compound 0.1 µM) was 0.514, the relative viability ([3]; first compound 0.3162 µM) was 0.5 and the relative viability ([3]; first compound 1 µM) was 0.447. The relative viability ([4]; first compound 0.01 µM) was 1.17, the relative viability ([4]; first compound 0.03162 µM) was 0.635 and the relative viability ([4]; first compound 0.1 µM) was 0.3. For the same cell line, the relative viability ([4]; first compound 0.3162 µM) was 0.371 and the relative viability ([4]; first compound 1 µM) was 0.406.

In the case of NCI-H2126, the relative viability ([1]; first compound 0.01 µM) is reported as 0.719, the relative viability ([1]; first compound 0.03162 µM) is reported as 0.719 and the relative viability ([1]; first compound 0.1 µM) is reported as 0.711. For the same cell line, the relative viability ([1]; first compound 0.3162 µM) was 0.614, the relative viability ([1]; first compound 1 µM) was 0.435 and the relative viability ([2]; first compound 0.01 µM) was 0.782. The relative viability ([2]; first compound 0.03162 µM) was 0.724, the relative viability ([2]; first compound 0.1 µM) was 0.769 and the relative viability ([2]; first compound 0.3162 µM) was 0.761. It also gave a relative viability ([2]; first compound 1 µM) of 0.469, a relative viability ([3]; first compound 0.01 µM) of 0.758 and a relative viability ([3]; first compound 0.03162 µM) of 0.617. The relative viability ([3]; first compound 0.1 µM) was 0.692, the relative viability ([3]; first compound 0.3162 µM) was 0.692 and the relative viability ([3]; first compound 1 µM) was 0.682. For the same cell line, the relative viability ([4]; first compound 0.01 µM) was 0.759, the relative viability ([4]; first compound 0.03162 µM) was 0.729 and the relative viability ([4]; first compound 0.1 µM) was 0.799. It also gave a relative viability ([4]; first compound 0.3162 µM) of 0.733 and a relative viability ([4]; first compound 1 µM) of 0.706.

With NCI-H2228 the relative viability ([1]; first compound 0.01 µM) was 0.502, the relative viability ([1]; first compound 0.03162 µM) was 0.427 and the relative viability ([1]; first compound 0.1 µM) was 0.363. For the same cell line, the relative viability ([1]; first compound 0.3162 µM) was 0.214, the relative viability ([1]; first compound 1 µM) was 0.168 and the relative viability ([2]; first compound 0.01 µM) was 1.02. For the same cell line, the relative viability ([2]; first compound 0.03162 µM) was 0.705, the relative viability ([2]; first compound 0.1 µM) was 0.782 and the relative viability ([2]; first compound 0.3162 µM) was 0.444. The relative viability ([2]; first compound 1 µM) was 0.315, the relative viability ([3]; first compound 0.01 µM) was 0.771 and the relative viability ([3]; first compound 0.03162 µM) was 0.416. For the same cell line, the relative viability ([3]; first compound 0.1 µM) was 0.611, the relative viability ([3]; first compound 0.3162 µM) was 0.382 and the relative viability ([3]; first compound 1 µM) was 0.494. For the same cell line, the relative viability ([4]; first compound 0.01 µM) was 0.997, the relative viability ([4]; first compound 0.03162 µM) was 0.475 and the relative viability ([4]; first compound 0.1 µM) was 0.473. It also gave a relative viability ([4]; first compound 0.3162 µM) of 0.537 and a relative viability ([4]; first compound 1 µM) of 0.371.
